# Publication PMC11480361, “Design of a Cereblon construct for crystallographic and biophysical studies of protein degraders” (Nature Communications, 2024)
# Biological target: T1, CRBN^midi (Homo sapiens, UniProt Q96SW2, C287N/C343E/C78I/DEL188-248/G302D/I92V/INS187GSG/K116N/L342R/L423I/Q134E/R283W/T359I/V293S)
# T1 construct: amino acids 41-187 followed by a Gly-Ser-Gly linker and amino acids 249-426; His6 (N, cleaved yes); made in house; host or cells: E. coli BL21(DE3)
# Test: SEC-SAXS of CRBN^midi with binders (radius of gyration)
# Details: Supplementary Table 3
# Description: Frames from SEC-SAXS that corresponded to the main protein peak, were merged using Chromixs[61] and analyzed using the ATSAS (version 3.2.1) package. Radii of gyration and molecular mass were extrapolated from the Guinier plot using Primus. Pairwise-distance distributions were calculated using GNOM[63]. The dimensionless Kratky plot[49] was obtained by manually plotting (qRg)^2I(q)/I0 against qRg.
# The open conformation model was obtained by homology modelling using the SWISS-MODEL webserver (accessed April 18th 2023)[65] with the cryo-EM structure of apo-CRBN (PDB ID: 8CVP)[25] as the input structure.
# T1 sequence (Q96SW2 with tags, fused parts or gaps with the stated changes limits assumed): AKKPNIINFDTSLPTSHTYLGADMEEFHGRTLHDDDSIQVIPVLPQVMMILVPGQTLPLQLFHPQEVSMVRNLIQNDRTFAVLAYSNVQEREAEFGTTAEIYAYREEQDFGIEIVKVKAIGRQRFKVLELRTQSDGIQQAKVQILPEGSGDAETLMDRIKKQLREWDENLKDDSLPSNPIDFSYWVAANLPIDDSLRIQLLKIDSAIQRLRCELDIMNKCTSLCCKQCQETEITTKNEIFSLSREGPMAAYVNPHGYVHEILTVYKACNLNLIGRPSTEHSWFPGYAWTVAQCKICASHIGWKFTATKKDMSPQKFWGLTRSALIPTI
structure (smiles),measurement,setting,value
"N#Cc1ccc(N2CCN(Cc3ccc(COc4cccc5c4CN([C@H]4CCC(=O)NC4=O)C5=O)cc3)CC2)c(F)c1 [mezigdomide, Mezigdomide]","Rg, P(r) Analysis from AUTOGNOM",apo 26.91 ± 0.04,22.45 ± 0.04 Å
same,"dmax, P(r) analysis",apo 172.46,145.02 Å
same,"Rg, Guinier analysis","binder 400 µM (mezigdomide, lenalidomide) or 200 µM (Boc-VcN, Boc-AcQ), apo 26.73 ± 0.06",22.79 ± 0.06 Å
